In ChEMBL document CHEMBL1151562, “Stereoselective synthesis of novel analogues of 2-deoxy- and 2,3-dideoxynucleosides with potential antiviral activity” (Bioorg Med Chem Lett, 1994):
Activity calls are given as the source filed them.

What was measured:
Type in all cases: functional, cell-based
Daudi [1] = assay: Tested for antiproliferative activity against human tumor DAUDI EBV-immortalized B-lymphoid cells up to 72 hrs at concentration of 10 ug/ml; Inactive
Daudi [2] = assay: Tested for antiproliferative activity against human tumor DAUDI EBV-immortalized B-lymphoid cells up to 72 hrs at concentration of 2.5 ug/ml; Inactive
Daudi [3] = assay: Tested for antiproliferative activity against human tumor DAUDI EBV-immortalized B-lymphoid cells up to 72 hrs at concentration of 5 ug/ml; Inactive
[4] = Tested for cell count against human tumor Molt-4 cell line for antiproliferative activity; Inactive
Daudi [5] = assay: Tested for antiproliferative activity against human tumor DAUDI EBV-immortalized B-lymphoid cells up to 72 hrs at concentration of 1.25 ug/ml; Inactive
[6] = Tested for cell count against human tumor DAUDI EBV-immortalized B-lymphoid cells for antiproliferative activity; Inactive
K562 = assay: Tested for cell count against human tumor K562 erythromyeloid stem cells for antiproliferative activity; Inactive
[7] = Tested for cell count against human tumor MT-2 T-lymphoid cells for antiproliferative activity; Inactive
MT2 [8] = assay: Tested for antiproliferative activity against human tumor MT-2 T-lymphoid cells up to 72 hrs at concentration of 1.25 ug/ml; Inactive
MT2 [9] = assay: Tested for antiproliferative activity against human tumor MT-2 T-lymphoid cells up to 72 hrs at concentration of 10 ug/ml; Inactive
MT2 [10] = assay: Tested for antiproliferative activity against human tumor MT-2 T-lymphoid cells up to 72 hrs at concentration of 2.5 ug/ml; Inactive
MT2 [11] = assay: Tested for antiproliferative activity against human tumor MT-2 T-lymphoid cells up to 72 hrs at concentration of 5 ug/ml; Inactive
[12] = Tested for antiproliferative activity against human tumor U937 cell line up to 72 hrs at concentration of 1.25 ug/ml; Inactive
[13] = Tested for antiproliferative activity against human tumor U937 cell line up to 72 hrs at concentration of 10 ug/ml; Inactive
[14] = Tested for antiproliferative activity against human tumor U937 cell line up to 72 hrs at concentration of 2.5 ug/ml; Inactive
[15] = Tested for antiproliferative activity against human tumor U937 cell line up to 72 hrs at concentration of 5 ug/ml; Inactive
[16] = Tested for cell count against human tumor HL60 myeloid cells for antiproliferative activity; Inactive
MOLT-4 [17] = assay: Tested for antiproliferative activity against human tumor Molt-4 cell line up to 72 hrs at concentration of 5 ug/ml; Inactive
MOLT-4 [18] = assay: Tested for antiproliferative activity against human tumor Molt-4 cell line up to 72 hrs at concentration of 1.25 ug/ml; Inactive
MOLT-4 [19] = assay: Tested for antiproliferative activity against human tumor Molt-4 cell line up to 72 hrs at concentration of 10 ug/ml; Inactive
MOLT-4 [20] = assay: Tested for antiproliferative activity against human tumor Molt-4 cell line up to 72 hrs at concentration of 2.5 ug/ml; Inactive

Measured: Activity

C=CCC1C(O)[C@@H](CO)O[C@H]1n1ccc(=O)[nH]c1=O (single isomer, unassigned)
inactive: all assays above

CCCC1C(O)[C@@H](CO)O[C@H]1n1ccc(N)nc1=O (single isomer, unassigned)
inactive: all assays above

CCC[C@H]1C[C@@H](CO)OC1n1ccc(=O)[nH]c1=O (stereo partly drawn)
inactive: all assays above
